# In US6737383B1, “Herbicidal oxadiazolidines” (priority 1999, dated 2004):
# Tests used:
# [1] = test system: cocklebur; experiment: Test B pre/postemergence cocklebur; assay type: in vivo, Xanthium strumarium; conditions: for Cocklebur plant response rating (0 to 10 scale): 0 is no effect
# How it was run: (§1)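 Response is a visual 0-to-10 score relative to untreated plants, where 0 means no effect and 10 means complete control, taken twelve to sixteen days after application. Treatments went onto soil at planting and onto foliage of 1- to 4-leaf plants, using a surfactant-containing non-phytotoxic solvent.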
# [2] = test system: corn; experiment: Test B pre/postemergence corn; assay type: in vivo, Zea mays; conditions: for Corn plant response rating (0 to 10 scale): 0 is no effect
# How it was run: as §1
# [3] = test system: crabgrass; experiment: Test B pre/postemergence crabgrass; assay type: in vivo, Digitaria sanguinalis
# How it was run: as §1
# [4] = test system: giant foxtail; experiment: Test B pre/postemergence giant foxtail; assay type: in vivo, Setaria faberii; conditions: for Giant foxtail plant response rating (0 to 10 scale): 0 is no effect
# How it was run: as §1
# [5] = test system: morningglory; experiment: Test B pre/postemergence morningglory; assay type: in vivo, Ipomoea hederacea; conditions: for Morningglory plant response rating (0 to 10 scale): 0 is no effect
# How it was run: as §1
# [6] = test system: pigweed; experiment: Test B pre/postemergence pigweed; assay type: in vivo, Amaranthus retroflexus
# How it was run: as §1
# [7] = test system: rape; experiment: Test B pre/postemergence rape; assay type: in vivo, Brassica napus; conditions: for Rape plant response rating (0 to 10 scale): 0 is no effect
# How it was run: as §1
# [8] = test system: soybean; experiment: Test B pre/postemergence soybean; assay type: in vivo, Glycine max; conditions: for Soybean plant response rating (0 to 10 scale): 0 is no effect
# How it was run: as §1
# [9] = test system: sugar beet; experiment: Test B pre/postemergence sugar beet; assay type: in vivo, Beta vulgaris; conditions: for Sugarbeets plant response rating (0 to 10 scale): 0 is no effect
# How it was run: as §1
# [10] = test system: velvetleaf; experiment: Test B pre/postemergence velvetleaf; assay type: in vivo, Abutilon theophrasti; conditions: for Velvetleaf plant response rating (0 to 10 scale): Rate 125 g/ha, 0 is no effect
# How it was run: as §1
# [11] = test system: wheat; experiment: Test B pre/postemergence wheat; assay type: in vivo, Triticum aestivum; conditions: for Wheat plant response rating (0 to 10 scale): Rate 125 g/ha, 0 is no effect
# How it was run: as §1
# [12] = test system: wild oat; experiment: Test B pre/postemergence wild oat; assay type: in vivo, Avena fatua; conditions: for Wild oats plant response rating (0 to 10 scale): Rate 125 g/ha, 0 is no effect
# How it was run: as §1
# [13] = test system: purple nutsedge; experiment: Test B pre/postemergence purple nutsedge; assay type: in vivo, Cyperus rotundus; conditions: for Nutsedge plant response rating (0 to 10 scale): 0 is no effect
# How it was run: as §1
# [14] = Postemergence, Rate 125 g/ha, scale of 0 to 10 where 0 is no effect and 10 is complete control
# [15] = Preemergence, Rate 62 g/ha, scale of 0 to 10 where 0 is no effect and 10 is complete control
# [16] = Preemergence, Rate 125 g/ha, 10 is complete control
# [17] = Preemergence, Rate 250 g/ha, scale 0 to 10, 0 is no effect, 10 is complete control
# [18] = Preemergence, Rate 500 g/ha, scale 0 to 10 (0 no effect, 10 complete control)
# [19] = Rate 62 g/ha, Postemergence, scale of 0 to 10 where 0 is no effect and 10 is complete control
# [20] = Rate 250 g/ha, Postemergence, scale 0 to 10, 0 is no effect, 10 is complete control
# [21] = Rate 500 g/ha, Postemergence, scale 0 to 10
# [22] = Preemergence, Rate 125 g/ha, 0 is no effect, 10 is complete control
# [23] = Preemergence, 10 is complete control
structure (smiles),measurement,setting,value
CC1CCCCC1n1c(=O)on(C(=O)N(c2ccc(F)cc2F)C(C)C)c1=O (stereo not drawn) [Compound 172],Cocklebur plant response rating,[1]; [14],0
same,Cocklebur plant response rating,[1]; [15],0
same,Cocklebur plant response rating (0 to 10 scale),[1]; [16],0
same,Cocklebur plant response rating,[1]; [17],0
same,Cocklebur plant response rating,[1]; [18],0
same,Cocklebur plant response rating,[1]; [19],0
same,"Plant response rating, Cocklebur",[1]; [20],0
same,Cocklebur plant response rating,[1]; [21],2
same,Corn plant response rating,[2]; [14],0
same,Corn plant response rating,[2]; [15],0
same,Corn plant response rating (0 to 10 scale),[2]; [16],0
same,Corn plant response rating,[2]; [17],0
same,Corn plant response rating,[2]; [18],0
same,Corn plant response rating,[2]; [19],0
same,"Plant response rating, Corn",[2]; [20],0
same,Corn plant response rating,[2]; [21],0
same,Crabgrass plant response rating,[3]; [14],3
same,Crabgrass plant response rating,[3]; [15],7
same,Crabgrass plant response rating (0 to 10 scale),[3]; [22],8
same,Crabgrass plant response rating,[3]; [17],10
same,Crabgrass plant response rating,[3]; [18],10
same,Crabgrass plant response rating,[3]; [19],0
same,"Plant response rating, Crabgrass",[3]; [20],9
same,Crabgrass plant response rating,[3]; [21],9
same,Giant foxtail plant response rating,[4]; [14],0
same,Giant foxtail plant response rating,[4]; [15],8
same,Giant foxtail plant response rating (0 to 10 scale),[4]; [16],9
same,Giant foxtail plant response rating,[4]; [17],10
same,Giant foxtail plant response rating,[4]; [18],10
same,Giant foxtail plant response rating,[4]; [19],0
same,"Plant response rating, Giant foxtail",[4]; [20],0
same,Giant foxtail plant response rating,[4]; [21],0
same,Morningglory plant response rating,[5]; [14],5
same,Morningglory plant response rating,[5]; [15],0
same,Morningglory plant response rating (0 to 10 scale),[5]; [16],0
same,Morningglory plant response rating,[5]; [17],0
same,Morningglory plant response rating,[5]; [18],0
same,Morningglory plant response rating,[5]; [19],2
same,"Plant response rating, Morningglory",[5]; [20],5
same,Morningglory plant response rating,[5]; [21],8
same,Redroot pigweed plant response rating,[6]; [14],0
same,Redroot pigweed plant response rating,[6]; [15],0
same,Redroot pigweed plant response rating (0 to 10 scale),[6]; [22],6
same,Redroot pigweed plant response rating,[6]; [17],8
same,Redroot pigweed plant response rating,[6]; [18],8
same,Redroot pigweed plant response rating,[6]; [19],0
same,"Plant response rating, Redroot pigweed",[6]; [20],3
same,Redroot pigweed plant response rating,[6]; [21],7
same,Rape plant response rating,[7]; [14],0
same,Rape plant response rating,[7]; [15],0
same,Rape plant response rating (0 to 10 scale),[7]; [16],0
same,Rape plant response rating,[7]; [17],0
same,Rape plant response rating,[7]; [18],5
same,Rape plant response rating,[7]; [19],0
same,"Plant response rating, Rape",[7]; [20],0
same,Rape plant response rating,[7]; [21],0
same,Soybean plant response rating,[8]; [14],3
same,Soybean plant response rating,[8]; [15],0
same,Soybean plant response rating (0 to 10 scale),[8]; [16],0
same,Soybean plant response rating,[8]; [17],0
same,Soybean plant response rating,[8]; [18],0
same,Soybean plant response rating,[8]; [19],2
same,"Plant response rating, Soybean",[8]; [20],3
same,Soybean plant response rating,[8]; [21],5
same,Sugarbeets plant response rating,[9]; [14],0
same,Sugarbeets plant response rating,[9]; [15],0
same,Sugarbeets plant response rating (0 to 10 scale),[9]; [16],2
same,Sugarbeets plant response rating,[9]; [17],5
same,Sugarbeets plant response rating,[9]; [18],5
same,Sugarbeets plant response rating,[9]; [19],0
same,"Plant response rating, Sugarbeets",[9]; [20],0
same,Sugarbeets plant response rating,[9]; [21],0
same,Velvetleaf plant response rating,[10]; [15],0
same,Velvetleaf plant response rating (0 to 10 scale),[10]; [23],0
same,Velvetleaf plant response rating,[10]; [17],0
same,Velvetleaf plant response rating,[10]; [18],3
same,"Plant response rating, Velvetleaf",[10]; [20],0
same,Velvetleaf plant response rating,[10]; [21],2
same,Wheat plant response rating,[11]; [15],0
same,Wheat plant response rating (0 to 10 scale),[11]; [23],0
same,Wheat plant response rating,[11]; [17],0
same,Wheat plant response rating,[11]; [18],0
same,"Plant response rating, Wheat",[11]; [20],0
same,Wheat plant response rating,[11]; [21],0
same,Wild oats plant response rating,[12]; [15],0
same,Wild oats plant response rating (0 to 10 scale),[12]; [23],0
same,Wild oats plant response rating,[12]; [17],3
same,Wild oats plant response rating,[12]; [18],6
same,"Plant response rating, Wild oats",[12]; [20],0
same,Wild oats plant response rating,[12]; [21],0
same,Nutsedge plant response rating,[13]; [14],0
same,Nutsedge plant response rating,[13]; [15],0
same,Nutsedge plant response rating (0 to 10 scale),[13]; [16],0
same,Nutsedge plant response rating,[13]; [17],0
same,Nutsedge plant response rating,[13]; [18],0
same,Nutsedge plant response rating,[13]; [19],0
same,"Plant response rating, Nutsedge",[13]; [20],0
same,Nutsedge plant response rating,[13]; [21],0
CC(C)N(C(=O)n1oc(=O)n(CC(F)(F)F)c1=O)c1ccc(F)cc1 [Compound 163],Cocklebur plant response rating,[1]; [14],0
same,Cocklebur plant response rating,[1]; [15],0
same,Cocklebur plant response rating (0 to 10 scale),[1]; [16],0
same,Cocklebur plant response rating,[1]; [18],0
same,Cocklebur plant response rating,[1]; [19],0
same,"Plant response rating, Cocklebur",[1]; [20],3
same,Cocklebur plant response rating,[1]; [21],3
same,Corn plant response rating,[2]; [14],0
same,Corn plant response rating,[2]; [15],0
same,Corn plant response rating (0 to 10 scale),[2]; [16],0
same,Corn plant response rating,[2]; [17],0
same,Corn plant response rating,[2]; [18],2
same,Corn plant response rating,[2]; [19],0
same,"Plant response rating, Corn",[2]; [20],0
same,Corn plant response rating,[2]; [21],0
same,Crabgrass plant response rating,[3]; [14],7
same,Crabgrass plant response rating,[3]; [15],8
same,Crabgrass plant response rating,[3]; [17],8
same,Crabgrass plant response rating,[3]; [18],9
same,Crabgrass plant response rating,[3]; [19],6
same,"Plant response rating, Crabgrass",[3]; [20],8
same,Crabgrass plant response rating,[3]; [21],9
same,Giant foxtail plant response rating,[4]; [14],7
same,Giant foxtail plant response rating,[4]; [15],8
same,Giant foxtail plant response rating (0 to 10 scale),[4]; [16],8
same,Giant foxtail plant response rating,[4]; [17],8
same,Giant foxtail plant response rating,[4]; [18],10
same,Giant foxtail plant response rating,[4]; [19],6
same,"Plant response rating, Giant foxtail",[4]; [20],8
same,Giant foxtail plant response rating,[4]; [21],8
same,Morningglory plant response rating,[5]; [14],2
same,Morningglory plant response rating,[5]; [15],0
same,Morningglory plant response rating (0 to 10 scale),[5]; [16],0
same,Morningglory plant response rating,[5]; [17],0
same,Morningglory plant response rating,[5]; [18],0
same,Morningglory plant response rating,[5]; [19],2
same,"Plant response rating, Morningglory",[5]; [20],5
same,Morningglory plant response rating,[5]; [21],8
same,Redroot pigweed plant response rating,[6]; [14],2
same,Redroot pigweed plant response rating,[6]; [17],6
same,Redroot pigweed plant response rating,[6]; [18],9
same,Redroot pigweed plant response rating,[6]; [19],0
same,"Plant response rating, Redroot pigweed",[6]; [20],3
same,Redroot pigweed plant response rating,[6]; [21],3
same,Rape plant response rating,[7]; [14],0
same,Rape plant response rating,[7]; [15],0
same,Rape plant response rating (0 to 10 scale),[7]; [16],0
same,Rape plant response rating,[7]; [17],7
same,Rape plant response rating,[7]; [18],8
same,Rape plant response rating,[7]; [19],0
same,"Plant response rating, Rape",[7]; [20],2
same,Rape plant response rating,[7]; [21],4
same,Soybean plant response rating,[8]; [14],2
same,Soybean plant response rating,[8]; [15],0
same,Soybean plant response rating (0 to 10 scale),[8]; [16],0
same,Soybean plant response rating,[8]; [17],0
same,Soybean plant response rating,[8]; [18],0
same,Soybean plant response rating,[8]; [19],2
same,"Plant response rating, Soybean",[8]; [20],3
same,Soybean plant response rating,[8]; [21],3
same,Sugarbeets plant response rating,[9]; [14],0
same,Sugarbeets plant response rating,[9]; [15],0
same,Sugarbeets plant response rating (0 to 10 scale),[9]; [16],3
same,Sugarbeets plant response rating,[9]; [17],4
same,Sugarbeets plant response rating,[9]; [18],6
same,Sugarbeets plant response rating,[9]; [19],0
same,"Plant response rating, Sugarbeets",[9]; [20],4
same,Sugarbeets plant response rating,[9]; [21],5
same,Velvetleaf plant response rating,[10]; [15],0
same,Velvetleaf plant response rating (0 to 10 scale),[10]; [23],2
same,Velvetleaf plant response rating,[10]; [17],5
same,Velvetleaf plant response rating,[10]; [18],5
same,"Plant response rating, Velvetleaf",[10]; [20],6
same,Velvetleaf plant response rating,[10]; [21],6
same,Wheat plant response rating,[11]; [15],0
same,Wheat plant response rating (0 to 10 scale),[11]; [23],2
same,Wheat plant response rating,[11]; [17],2
same,Wheat plant response rating,[11]; [18],4
same,"Plant response rating, Wheat",[11]; [20],2
same,Wheat plant response rating,[11]; [21],5
same,Wild oats plant response rating,[12]; [15],3
same,Wild oats plant response rating (0 to 10 scale),[12]; [23],3
same,Wild oats plant response rating,[12]; [17],7
same,Wild oats plant response rating,[12]; [18],10
same,"Plant response rating, Wild oats",[12]; [20],3
same,Wild oats plant response rating,[12]; [21],3
same,Nutsedge plant response rating,[13]; [14],0
same,Nutsedge plant response rating,[13]; [15],0
same,Nutsedge plant response rating (0 to 10 scale),[13]; [16],0
same,Nutsedge plant response rating,[13]; [17],0
same,Nutsedge plant response rating,[13]; [18],0
same,Nutsedge plant response rating,[13]; [19],0
same,"Plant response rating, Nutsedge",[13]; [20],0
same,Nutsedge plant response rating,[13]; [21],3
